Test results reported in ChEMBL document CHEMBL5724806, “Unraveling interindividual differences and functional consequences of gut microbial metabolism of immunosuppressants” (2024).

Assays:
Format in all cases: ADME
[1] = (§1) The drug is tested on the gut metagenome community of P-01 with ENA study accession number: PRJEB31790 for biotransformation under microaerobic condition. The drug concentrations were measured over 7 timepoints collected between 0 and 12 hours of incubation by liquid-chromatography-coupled mass spectrometry (LC–MS); design: dose 5 uM, timepoint 0, 0.75, 1.5, 3, 6, 9, 12 hours; conditions: 5 µM
[2] = The drug is tested on Enterococcus faecalis strain: ATCC29212 for biotransformation under anaerobic condition. The drug concentrations were measured over 6 timepoints collected between 0 and 12 hours of incubation by liquid-chromatography-coupled mass spectrometry (LC–MS); design: dose 5 uM, timepoint 0, 1.5, 3, 6, 9, 12 hours; conditions: 5 µM
[3] = as §1, with “T-04” for “P-01”; design: dose 5 uM, timepoint 0, 0.75, 1.5, 3, 6, 9, 12 hours; conditions: 5 µM
[4] = The drug is tested on Escherichia coli strain: DSM27469 for biotransformation under anaerobic condition. The drug concentrations were measured over 6 timepoints collected between 0 and 12 hours of incubation by liquid-chromatography-coupled mass spectrometry (LC–MS); design: dose 5 uM, timepoint 0, 1.5, 3, 6, 9, 12 hours; conditions: 5 µM
[5] = as §1, with “T-04” for “P-01”, “anaerobic” for “microaerobic”; design: dose 5 uM, timepoint 0, 0.75, 1.5, 3, 6, 9, 12 hours; conditions: 5 µM
[6] = The drug is tested on Bifidobacterium longum strain: DSM20088 for biotransformation under anaerobic condition. The drug concentrations were measured over 6 timepoints collected between 0 and 12 hours of incubation by liquid-chromatography-coupled mass spectrometry (LC–MS); design: dose 5 uM, timepoint 0, 1.5, 3, 6, 9, 12 hours; conditions: 5 µM
[7] = as §1, with “T-03” for “P-01”; design: dose 5 uM, timepoint 0, 0.75, 1.5, 3, 6, 9, 12 hours; conditions: 5 µM
[8] = The drug is tested on Streptococcus salivarius strain: DSM20560 for biotransformation under anaerobic condition. The drug concentrations were measured over 6 timepoints collected between 0 and 12 hours of incubation by liquid-chromatography-coupled mass spectrometry (LC–MS); design: dose 5 uM, timepoint 0, 1.5, 3, 6, 9, 12 hours; conditions: 5 µM
[9] = as §1, with “A-03” for “P-01”, “anaerobic” for “microaerobic”; design: dose 5 uM, timepoint 0, 0.75, 1.5, 3, 6, 9, 12 hours; conditions: 5 µM
[10] = The drug is tested on Streptococcus salivarius strain: DSM20560 for biotransformation under microaerobic condition. The drug concentrations were measured over 6 timepoints collected between 0 and 12 hours of incubation by liquid-chromatography-coupled mass spectrometry (LC–MS); design: dose 5 uM, timepoint 0, 1.5, 3, 6, 9, 12 hours; conditions: 5 µM
[11] = as §1, with “A-02” for “P-01”, “anaerobic” for “microaerobic”; design: dose 5 uM, timepoint 0, 0.75, 1.5, 3, 6, 9, 12 hours; conditions: 5 µM
[12] = The drug is tested on Prevotella copri strain: DSM18205 for biotransformation under anaerobic condition. The drug concentrations were measured over 6 timepoints collected between 0 and 12 hours of incubation by liquid-chromatography-coupled mass spectrometry (LC–MS); design: dose 5 uM, timepoint 0, 1.5, 3, 6, 9, 12 hours; conditions: segatella copri, 5 µM
[13] = as §1, with “T-05” for “P-01”; design: dose 5 uM, timepoint 0, 0.75, 1.5, 3, 6, 9, 12 hours; conditions: 5 µM
[14] = as §1, with “A-07” for “P-01”; design: dose 5 uM, timepoint 0, 0.75, 1.5, 3, 6, 9, 12 hours; conditions: 5 µM
[15] = as §1, with “T-03” for “P-01”, “anaerobic” for “microaerobic”; design: dose 5 uM, timepoint 0, 0.75, 1.5, 3, 6, 9, 12 hours; conditions: 5 µM
[16] = The drug is tested on Escherichia coli strain: DSM27469 for biotransformation under microaerobic condition. The drug concentrations were measured over 6 timepoints collected between 0 and 12 hours of incubation by liquid-chromatography-coupled mass spectrometry (LC–MS); design: dose 5 uM, timepoint 0, 1.5, 3, 6, 9, 12 hours; conditions: 5 µM
[17] = The drug is tested on Lactobacillus paracasei strain: ATCC27092 for biotransformation under anaerobic condition. The drug concentrations were measured over 6 timepoints collected between 0 and 12 hours of incubation by liquid-chromatography-coupled mass spectrometry (LC–MS); design: dose 5 uM, timepoint 0, 1.5, 3, 6, 9, 12 hours; conditions: lacticaseibacillus paracasei, 5 µM
[18] = The drug is tested on Lactobacillus reuteri strain: DSM20016 for biotransformation under anaerobic condition. The drug concentrations were measured over 6 timepoints collected between 0 and 12 hours of incubation by liquid-chromatography-coupled mass spectrometry (LC–MS); design: dose 5 uM, timepoint 0, 1.5, 3, 6, 9, 12 hours; conditions: limosilactobacillus reuteri, 5 µM
[19] = as §1, with “anaerobic” for “microaerobic”; design: dose 5 uM, timepoint 0, 0.75, 1.5, 3, 6, 9, 12 hours; conditions: 5 µM
[20] = The drug is tested on Actinomyces graevenitzii strain: DSM15540 for biotransformation under microaerobic condition. The drug concentrations were measured over 6 timepoints collected between 0 and 12 hours of incubation by liquid-chromatography-coupled mass spectrometry (LC–MS); design: dose 5 uM, timepoint 0, 1.5, 3, 6, 9, 12 hours; conditions: 5 µM
[21] = as §1, with “A-02” for “P-01”; design: dose 5 uM, timepoint 0, 0.75, 1.5, 3, 6, 9, 12 hours; conditions: 5 µM
[22] = The drug is tested on Coprococcus comes strain: ATCC27758 for biotransformation under anaerobic condition. The drug concentrations were measured over 6 timepoints collected between 0 and 12 hours of incubation by liquid-chromatography-coupled mass spectrometry (LC–MS); design: dose 5 uM, timepoint 0, 1.5, 3, 6, 9, 12 hours; conditions: 5 µM
[23] = as §1, with “P-03” for “P-01”; design: dose 5 uM, timepoint 0, 0.75, 1.5, 3, 6, 9, 12 hours; conditions: 5 µM
[24] = The drug is tested on Alloscardovia omnicolens strain: DSM21503 for biotransformation under anaerobic condition. The drug concentrations were measured over 6 timepoints collected between 0 and 12 hours of incubation by liquid-chromatography-coupled mass spectrometry (LC–MS); design: dose 5 uM, timepoint 0, 1.5, 3, 6, 9, 12 hours; conditions: 5 µM
[25] = The drug is tested on Bacteroides stercoris strain: HM 1036 for biotransformation under anaerobic condition. The drug concentrations were measured over 6 timepoints collected between 0 and 12 hours of incubation by liquid-chromatography-coupled mass spectrometry (LC–MS); design: dose 5 uM, timepoint 0, 1.5, 3, 6, 9, 12 hours; conditions: 5 µM
[26] = The drug is tested on Lactobacillus ruminis strain: ATCC25644 for biotransformation under microaerobic condition. The drug concentrations were measured over 6 timepoints collected between 0 and 12 hours of incubation by liquid-chromatography-coupled mass spectrometry (LC–MS); design: dose 5 uM, timepoint 0, 1.5, 3, 6, 9, 12 hours; conditions: ligilactobacillus ruminis, 5 µM
[27] = The drug is tested on Bifidobacterium adolescentis strain: DSM20083 for biotransformation under anaerobic condition. The drug concentrations were measured over 6 timepoints collected between 0 and 12 hours of incubation by liquid-chromatography-coupled mass spectrometry (LC–MS); design: dose 5 uM, timepoint 0, 1.5, 3, 6, 9, 12 hours; conditions: 5 µM
[28] = The drug is tested on Lactobacillus paracasei strain: ATCC27092 for biotransformation under microaerobic condition. The drug concentrations were measured over 6 timepoints collected between 0 and 12 hours of incubation by liquid-chromatography-coupled mass spectrometry (LC–MS); design: dose 5 uM, timepoint 0, 1.5, 3, 6, 9, 12 hours; conditions: lacticaseibacillus paracasei, 5 µM
[29] = The drug is tested on Odoribacter splanchnicus strain: DSM20712 for biotransformation under anaerobic condition. The drug concentrations were measured over 6 timepoints collected between 0 and 12 hours of incubation by liquid-chromatography-coupled mass spectrometry (LC–MS); design: dose 5 uM, timepoint 0, 1.5, 3, 6, 9, 12 hours; conditions: 5 µM
[30] = as §1, with “A-10” for “P-01”; design: dose 5 uM, timepoint 0, 0.75, 1.5, 3, 6, 9, 12 hours; conditions: 5 µM

Measured: Bacterial Biotransformation

CCC(C)(C)C(=O)O[C@H]1C[C@@H](C)C=C2C=C[C@H](C)[C@H](CC[C@@H]3C[C@@H](O)CC(=O)O3)[C@H]21 [SIMVASTATIN]
Compound NOT metabolized: [1] | [2] | [3] | [4] | [5] | [6] | [7] | [8] | [9] | [10] | [13] | [14] | [15] | [16] | [17] | [18] | [19] | [20] | [23] | [24] | [25] | [26] | [27] | [28] | [29] | [30]
Compound metabolized: [11] | [12] | [21] | [22]

CO[C@H]1C[C@@H]2CC[C@@H](C)[C@@](O)(O2)C(=O)C(=O)N2CCCC[C@H]2C(=O)O[C@H]([C@H](C)C[C@@H]2CC[C@@H](O)[C@H](OC)C2)CC(=O)[C@H](C)/C=C(\C)[C@@H](O)[C@@H](OC)C(=O)[C@H](C)C[C@H](C)/C=C/C=C/C=C/1C [SIROLIMUS]
Compound NOT metabolized: [1] | [3] | [4] | [5] | [7] | [10] | [12] | [13] | [15] | [16] | [17] | [18] | [19] | [23] | [26] | [27] | [28] | [29] | [30]
Compound metabolized: [2] | [6] | [8] | [9] | [11] | [14] | [20] | [21] | [22] | [24] | [25]

C=CC[C@@H]1/C=C(\C)C[C@H](C)C[C@H](OC)[C@H]2O[C@@](O)(C(=O)C(=O)N3CCCC[C@H]3C(=O)O[C@H](/C(C)=C/[C@@H]3CC[C@@H](O)[C@H](OC)C3)[C@H](C)[C@@H](O)CC1=O)[C@H](C)C[C@@H]2OC.O [TACROLIMUS]
Compound metabolized: [2] | [3] | [13] | [14] | [21] | [22] | [30]
Compound NOT metabolized: [1] | [4] | [5] | [6] | [7] | [8] | [9] | [10] | [11] | [12] | [15] | [16] | [17] | [18] | [19] | [20] | [23] | [24] | [25] | [26] | [27] | [28] | [29]
